Our source for the melting point values is US20050203079A1, “Compounds having affinity at 5ht2C receptor and use thereof in therapy” (GLAXO GROUP LIMITED, priority 2002, published 2005).

Counter-ions that a name gives are not always drawn.

`COc1ccc(N2CC=C(c3cccc(Cl)c3)C2=O)cc1OCCN1CCC(C)CC1.Cl`: the melting point (commonly the temperature, or range, at which the solid turns liquid) lay in the range of 99 to 101 °C.
In turn, `COc1ccc(N2CC=C(c3ccc(F)cc3)C2=O)cc1OCCN1CCCCC1` (as salt: hydrochloride) gave a melting point of 207 to 209 °C.
